{"source": "patent US12000829B2", "about": "“Selection of patients for combination therapy” (SYNDAX PHARMACEUTICALS, INC., priority 2018, dated 2024)", "origin": "cited, not measured here", "key": {"[1]": {"test_system": "syngeneic mouse tumor models of lung and renal cell carcinoma", "details": "two syngeneic mouse tumor models; tumor growth and survival"}, "[2]": {"test_system": "modestly immunogenic mouse tumors", "details": "in combination with immune checkpoint blockade agents"}, "[3]": {"test_system": "MDSCs and CD14+HLA-DR^Hi monocytes", "details": "ER+ breast cancer patients, combined with exemestane"}, "[4]": {"test_system": "squamous or non-squamous NSCLC", "details": "NSCLC and metastatic melanoma cohorts"}, "[5]": {"test_system": "human carcinoma cell lines"}}, "note": "Where two headings read alike, the source gives them in different places.", "data": [{"compound": "Nc1ccccc1NC(=O)c1ccc(CNC(=O)OCc2cccnc2)cc1", "note": "[Entinostat, N-(2-aminophenyl)-4-[N-(pyridine-3-yl)methoxycarbonylamino-methyl]-benzamide]", "values": [{"measurement": "antitumor effect of PD-1 inhibition", "setting": "[1]", "result": "enhanced the antitumor effect of PD-1 inhibition"}, {"measurement": "effect on tumors", "setting": "[2]", "result": "can eradicate modestly immunogenic mouse tumors"}, {"measurement": "effect on CD14+HLA-DR^Hi monocytes in patients", "setting": "[3]", "result": "increased immunocompetent CD14+HLA-DR^Hi monocytes"}, {"measurement": "effect on MDSCs in patients", "setting": "[3]", "result": "reduction of immunosuppressive MDSCs"}]}, {"compound": "MPDL3280A: human anti-PD-L1 mAb with engineered Fc domain minimizing ADCC", "values": [{"measurement": "responses", "setting": "[4]", "result": "durable responses"}]}, {"compound": "Pembrolizumab: humanized monoclonal IgG4 anti-PD-1 antibody", "values": [{"measurement": "additional patients with unconfirmed responses", "setting": "melanoma; human, in vivo", "result": 8, "unit": "patients"}, {"measurement": "biopsies of responding tumors", "setting": "melanoma; human, in vivo", "result": "dense infiltration by CD8^+ T cells"}, {"measurement": "rate of severe toxicities", "setting": "melanoma; less dose intense cohorts", "result": "< 10", "unit": "%"}]}, {"compound": "avelumab: fully human anti-PD-L1 IgG1 antibody", "values": [{"measurement": "lysis", "setting": "[5]; NK cells as effectors", "result": "Lysis was increased"}, {"measurement": "lysis", "setting": "[5]; NK cells preactivated with IL-12", "result": "increased lysis"}, {"measurement": "lysis", "setting": "[5]; NK-mediated ADCC vs whole PBMCs or dendritic cells isolated from PBMCs", "result": "Little or no lysis"}, {"measurement": "human carcinoma cell lines in which ADCC was induced", "setting": "[5]; PBMCs as effectors", "result": "8 out of 18"}, {"measurement": "cell lines with augmented lysis", "setting": "[5]; tumor cell lines pretreated with IFN-γ", "result": "4 out of 10"}]}]}
